From PMC5218480 (PLoS ONE, 2017)

System: MV-4-11 cells
Assay: Gene expression microarray analysis (Affymetrix PrimeView) and GSEA
Format: cell-based, human
Parameters: RFU PODN (11730768_x_at) / Fold change /veh PODN (11730768_x_at) / RFU LINC00158 (11744669_a_at) / Fold change /veh LINC00158 (11744669_a_at) / RFU DUSP10 (11751237_a_at) / Fold change /veh DUSP10 (11751237_a_at) / RFU ID3 (11757404_x_at) / Fold change /veh ID3 (11757404_x_at) / RFU PLEKHG5 (11737974_s_at) / Fold change /veh PLEKHG5 (11737974_s_at) / RFU LRRC4B (11730491_at) / Fold change /veh LRRC4B (11730491_at) / RFU GIMAP4 (11747438_a_at) / Fold change /veh GIMAP4 (11747438_a_at) / RFU KRT8 (11758183_x_at) / Fold change /veh KRT8 (11758183_x_at) / RFU CNN1 (11734310_a_at) / Fold change /veh CNN1 (11734310_a_at) / RFU VPS37D (11726825_at) / Fold change /veh VPS37D (11726825_at) / RFU C10orf10 (11716522_x_at) / Fold change /veh C10orf10 (11716522_x_at) / RFU KIR2DL2 /// KIR2DL4 /// KIR2DL5A /// KIR2DL5B /// KIR2DS1 /// KIR2DS2 /// KIR2DS3 /// KIR2DS4 /// KIR3DL3 /// KIR3DL3 /// KIR3DS1 (11738374_at) / Fold change /veh KIR2DL2 /// KIR2DL4 /// KIR2DL5A /// KIR2DL5B /// KIR2DS1 /// KIR2DS2 /// KIR2DS3 /// KIR2DS4 /// KIR3DL3 /// KIR3DL3 /// KIR3DS1 (11738374_at) / RFU C1QL1 (11718748_at) / Fold change /veh C1QL1 (11718748_at) / RFU TMPRSS4 (11747572_a_at) / Fold change /veh TMPRSS4 (11747572_a_at) / RFU HAMP (11756126_x_at) / Fold change /veh HAMP (11756126_x_at) / RFU RNFT2 (11725882_a_at) / Fold change /veh RNFT2 (11725882_a_at) / RFU NR4A2 (11747474_a_at) / Fold change /veh NR4A2 (11747474_a_at) / RFU ABCC12 (11746883_a_at) / Fold change /veh ABCC12 (11746883_a_at) / RFU TMEM136 (11760407_x_at) / Fold change /veh TMEM136 (11760407_x_at) / RFU CLDN22 /// WWC2 (11732394_at) / Fold change /veh CLDN22 /// WWC2 (11732394_at) / RFU HLA-DPB1 (11760878_x_at) / Fold change /veh HLA-DPB1 (11760878_x_at) / RFU SPINT1 (11716480_a_at) / Fold change /veh SPINT1 (11716480_a_at) / RFU GAP43 (11754022_s_at) / Fold change /veh GAP43 (11754022_s_at) / RFU A4GNT (11735810_at) / Fold change /veh A4GNT (11735810_at) / RFU PRB3 (11715151_x_at) / Fold change /veh PRB3 (11715151_x_at) / RFU TUBB4B (11761932_at) / Fold change /veh TUBB4B (11761932_at) / RFU CAPN14 (11732068_a_at) / Fold change /veh CAPN14 (11732068_a_at) / RFU TMCC2 (11721928_a_at) / Fold change /veh TMCC2 (11721928_a_at) / RFU IRGQ (11745062_a_at) / Fold change /veh IRGQ (11745062_a_at) / RFU FAM174B (11720279_a_at) / Fold change /veh FAM174B (11720279_a_at) / RFU TMPRSS4 (11748680_a_at) / Fold change /veh TMPRSS4 (11748680_a_at) / RFU FAM212B (11763350_a_at) / Fold change /veh FAM212B (11763350_a_at) / RFU PLEKHG5 (11743358_a_at) / Fold change /veh PLEKHG5 (11743358_a_at) / RFU ZSCAN30 (11745921_a_at) / Fold change /veh ZSCAN30 (11745921_a_at) / RFU CMKLR1 (11741424_a_at) / Fold change /veh CMKLR1 (11741424_a_at) / RFU LOC101060620 /// MAPK8IP1 (11723275_at) / Fold change /veh LOC101060620 /// MAPK8IP1 (11723275_at) / RFU SPTSSB (11747773_x_at) / Fold change /veh SPTSSB (11747773_x_at) / RFU PRSS12 (11739890_at) / Fold change /veh PRSS12 (11739890_at) / RFU BIN1 (11741810_x_at) / Fold change /veh BIN1 (11741810_x_at) / RFU WNT11 (11732464_a_at) / Fold change /veh WNT11 (11732464_a_at) / RFU C10orf10 (11716521_a_at) / Fold change /veh C10orf10 (11716521_a_at) / RFU C5orf56 (11738089_at) / Fold change /veh C5orf56 (11738089_at) / RFU CYB561 (11721691_x_at) / Fold change /veh CYB561 (11721691_x_at) / RFU ANKRD19P (11752326_a_at) / Fold change /veh ANKRD19P (11752326_a_at) / RFU OR2T12 /// OR2T33 /// OR2T8 (11738714_s_at) / Fold change /veh OR2T12 /// OR2T33 /// OR2T8 (11738714_s_at) / RFU VCAN (11748164_a_at) / Fold change /veh VCAN (11748164_a_at) / RFU JSRP1 (11732532_at) / Fold change /veh JSRP1 (11732532_at) / RFU KRTAP10-11 (11738290_x_at) / Fold change /veh KRTAP10-11 (11738290_x_at) / RFU MYO3A (11730013_a_at) / Fold change /veh MYO3A (11730013_a_at) / RFU EBF3 (11725865_a_at) / Fold change /veh EBF3 (11725865_a_at) / RFU CAMK2N1 (11719241_x_at) / Fold change /veh CAMK2N1 (11719241_x_at) / RFU C5orf56 (11738088_a_at) / Fold change /veh C5orf56 (11738088_a_at) / RFU OLFML3 (11715873_a_at) / Fold change /veh OLFML3 (11715873_a_at) / RFU LOC100653217 /// NTM (11731650_a_at) / Fold change /veh LOC100653217 /// NTM (11731650_a_at) / RFU MAPK11 (11762145_a_at) / Fold change /veh MAPK11 (11762145_a_at) / RFU FIZ1 (11724087_x_at) / Fold change /veh FIZ1 (11724087_x_at) / RFU OASL (11726364_x_at) / Fold change /veh OASL (11726364_x_at) / RFU SOX15 (11748057_x_at) / Fold change /veh SOX15 (11748057_x_at) / RFU CD79A (11719716_a_at) / Fold change /veh CD79A (11719716_a_at) / RFU HIST1H1D (11736915_at) / Fold change /veh HIST1H1D (11736915_at) / RFU CASKIN2 (11723855_a_at) / Fold change /veh CASKIN2 (11723855_a_at) / RFU LOC730098 (11760151_x_at) / Fold change /veh LOC730098 (11760151_x_at) / RFU OR4N2 (11742367_at) / Fold change /veh OR4N2 (11742367_at) / RFU PRRT2 (11749266_a_at) / Fold change /veh PRRT2 (11749266_a_at) / RFU SNX32 (11753110_a_at) / Fold change /veh SNX32 (11753110_a_at) / RFU CDHR5 (11726645_a_at) / Fold change /veh CDHR5 (11726645_a_at) / RFU RCAN1 (11760418_a_at) / Fold change /veh RCAN1 (11760418_a_at) / RFU FAM167A (11723789_a_at) / Fold change /veh FAM167A (11723789_a_at) / RFU FAM26E (11764081_at) / Fold change /veh FAM26E (11764081_at) / RFU ISYNA1 (11749810_s_at) / Fold change /veh ISYNA1 (11749810_s_at) / RFU ACY1 (11761880_at) / Fold change /veh ACY1 (11761880_at) / RFU 11764098_at / Fold change /veh 11764098_at / RFU SAMD14 (11745864_x_at) / Fold change /veh SAMD14 (11745864_x_at) / RFU NPB (11741838_a_at) / Fold change /veh NPB (11741838_a_at) / RFU TMPRSS6 (11731388_a_at) / Fold change /veh TMPRSS6 (11731388_a_at) / RFU KRTAP10-2 (11738614_at) / Fold change /veh KRTAP10-2 (11738614_at) / RFU ARHGAP8 /// PRR5-ARHGAP8 (11727945_x_at) / Fold change /veh ARHGAP8 /// PRR5-ARHGAP8 (11727945_x_at) / RFU KRTAP5-7 /// NADSYN1 (11734609_at) / Fold change /veh KRTAP5-7 /// NADSYN1 (11734609_at) / RFU RASL12 (11751679_a_at) / Fold change /veh RASL12 (11751679_a_at) / RFU CDKN2B (11736163_a_at) / Fold change /veh CDKN2B (11736163_a_at) / RFU PRF1 (11729649_at) / Fold change /veh PRF1 (11729649_at) / RFU, ZNF638 /// ZNF638-IT1 / Fold change vs veh, ZNF638 /// ZNF638-IT1 / RFU, PANK3 / Fold change vs veh, PANK3 / RFU, SH3YL1 / Fold change vs veh, SH3YL1 / RFU, ZEB2 / Fold change vs veh, ZEB2 / RFU, NRIP1 / Fold change vs veh, NRIP1 / RFU, PTTG1IP / Fold change vs veh, PTTG1IP / RFU, CAPN2 / Fold change vs veh, CAPN2 / RFU, MED14 / Fold change vs veh, MED14 / RFU, SNORA58 / Fold change vs veh, SNORA58 / RFU, C1orf63 / Fold change vs veh, C1orf63 / RFU, LRRFIP1 / Fold change vs veh, LRRFIP1 / RFU, NDUFAF7 / Fold change vs veh, NDUFAF7 / RFU, SLC12A2 / Fold change vs veh, SLC12A2 / RFU, IBTK / Fold change vs veh, IBTK / RFU, ESF1 / Fold change vs veh, ESF1 / Fold change vs veh, TMEM50B / RFU, TAOK1 / Fold change vs veh, TAOK1 / RFU, ACBD3 / Fold change vs veh, ACBD3 / RFU, TMA16 / Fold change vs veh, TMA16 / RFU, RWDD3 / Fold change vs veh, RWDD3 / RFU, BCAT1 / Fold change vs veh, BCAT1 / RFU, EDEM3 / Fold change vs veh, EDEM3 / RFU, TMEM33 / Fold change vs veh, TMEM33 / RFU, WDR75 / Fold change vs veh, WDR75 / RFU, AHCTF1 / Fold change vs veh, AHCTF1 / RFU, TFRC / Fold change vs veh, TFRC / RFU, ZDHHC17 / Fold change vs veh, ZDHHC17 / RFU, NOM1 / Fold change vs veh, NOM1 / RFU, ARL8B / Fold change vs veh, ARL8B / RFU, ZBTB11 / Fold change vs veh, ZBTB11 / RFU, TAMM41 / Fold change vs veh, TAMM41 / RFU, KIAA1704 /// LOC100996395 / Fold change vs veh, KIAA1704 /// LOC100996395 / RFU, ING1 / Fold change vs veh, ING1 / RFU, TRMT61B / Fold change vs veh, TRMT61B / RFU, FUBP3 / Fold change vs veh, FUBP3 / RFU, TP53 / Fold change vs veh, TP53 / RFU, TNKS2 / Fold change vs veh, TNKS2 / RFU, ZFP14 / Fold change vs veh, ZFP14 / RFU, ACTR2 / Fold change vs veh, ACTR2 / RFU, PPP3R1 / Fold change vs veh, PPP3R1 / RFU, PIK3R1 / Fold change vs veh, PIK3R1 / RFU, HNRNPA1 / Fold change vs veh, HNRNPA1 / RFU, RNF170 / Fold change vs veh, RNF170 / RFU, ZNF28 / Fold change vs veh, ZNF28 / RFU, RNGTT / Fold change vs veh, RNGTT / RFU, OGT / Fold change vs veh, OGT / RFU, BRD1 / Fold change vs veh, BRD1 / RFU, MARS / Fold change vs veh, MARS / RFU, ZNF655 / Fold change vs veh, ZNF655 / RFU, FAHD1 / Fold change vs veh, FAHD1 / RFU, BDP1 / Fold change vs veh, BDP1 / RFU, LRRCC1 / Fold change vs veh, LRRCC1 / RFU, ARID1A / Fold change vs veh, ARID1A / RFU, ZNF146 / Fold change vs veh, ZNF146 / RFU, ZNF330 / Fold change vs veh, ZNF330 / RFU, GPN3 / Fold change vs veh, GPN3 / RFU, C9orf123 / Fold change vs veh, C9orf123 / RFU, N4BP2L2 / Fold change vs veh, N4BP2L2 / RFU, ARFIP1 / Fold change vs veh, ARFIP1 / RFU, FAM179B / Fold change vs veh, FAM179B / RFU, BCL10 / Fold change vs veh, BCL10 / RFU, UHRF1BP1L / Fold change vs veh, UHRF1BP1L / RFU, BET1 / Fold change vs veh, BET1 / RFU, CNOT2 / Fold change vs veh, CNOT2 / RFU, ZNF268 / Fold change vs veh, ZNF268 / Fold change vs veh, ZNF507 / RFU, DGCR2 / Fold change vs veh, DGCR2 / RFU, WDSUB1 / Fold change vs veh, WDSUB1 / Fold change vs veh, HSP90B1 /// MIR3652 / RFU, ADSS / Fold change vs veh, ADSS / RFU, GK / Fold change vs veh, GK / RFU, ZNF148 / Fold change vs veh, ZNF148 / RFU, TAF9 / Fold change vs veh, TAF9 / RFU, SLC1A5 / Fold change vs veh, SLC1A5 / RFU, SLMO2 / Fold change vs veh, SLMO2 / RFU, ABCC4 / Fold change vs veh, ABCC4 / RFU, LOC101060439 /// RAP1B / Fold change vs veh, LOC101060439 /// RAP1B / RFU, RFX7 / Fold change vs veh, RFX7 / RFU, GTPBP10 / Fold change vs veh, GTPBP10 / RFU, CNEP1R1 / Fold change vs veh, CNEP1R1 / RFU, BIVM-ERCC5 /// ERCC5 / Fold change vs veh, BIVM-ERCC5 /// ERCC5 / RFU, ILF3 / Fold change vs veh, ILF3 / RFU 11762660_at / Fold change /veh 11762660_at / RFU VCAN (11757783_s_at) / Fold change /veh VCAN (11757783_s_at) / RFU DDX43 (11728927_at) / Fold change /veh DDX43 (11728927_at) / RFU KRT8 (11758188_x_at) / Fold change /veh KRT8 (11758188_x_at) / RFU NKD1 (11759106_at) / Fold change /veh NKD1 (11759106_at) / RFU SRD5A1 (11742802_a_at) / Fold change /veh SRD5A1 (11742802_a_at) / RFU TPSAB1 /// TPSB2 (11721975_s_at) / Fold change /veh TPSAB1 /// TPSB2 (11721975_s_at) / RFU GSTM3 (11746129_a_at) / Fold change /veh GSTM3 (11746129_a_at) / RFU IL23R (11737362_x_at) / Fold change /veh IL23R (11737362_x_at) / RFU TMEM51 (11727254_a_at) / Fold change /veh TMEM51 (11727254_a_at) / RFU PIWIL2 (11732686_x_at) / Fold change /veh PIWIL2 (11732686_x_at) / RFU ORM1 (11744905_x_at) / Fold change /veh ORM1 (11744905_x_at) / RFU CCDC152 (11743942_at) / Fold change /veh CCDC152 (11743942_at) / RFU ECM1 (11717891_a_at) / Fold change /veh ECM1 (11717891_a_at) / RFU IL23R (11748794_a_at) / Fold change /veh IL23R (11748794_a_at) / RFU TNFAIP8L3 (11732012_x_at) / Fold change /veh TNFAIP8L3 (11732012_x_at) / RFU MBOAT4 (11741988_at) / Fold change /veh MBOAT4 (11741988_at) / RFU 11764193_at / Fold change /veh 11764193_at / RFU TMEM53 (11763286_at) / Fold change /veh TMEM53 (11763286_at) / RFU MAGEB2 (11727129_at) / Fold change /veh MAGEB2 (11727129_at) / RFU TMEM200A (11744735_a_at) / Fold change /veh TMEM200A (11744735_a_at) / RFU CCDC152 (11751479_a_at) / Fold change /veh CCDC152 (11751479_a_at) / RFU FAM211A (11726209_a_at) / Fold change /veh FAM211A (11726209_a_at) / RFU RGS16 (11746705_a_at) / Fold change /veh RGS16 (11746705_a_at) / RFU VCAN (11755009_s_at) / Fold change /veh VCAN (11755009_s_at) / RFU RHOB (11743442_s_at) / Fold change /veh RHOB (11743442_s_at) / RFU RGS16 (11720943_a_at) / Fold change /veh RGS16 (11720943_a_at) / RFU RGS16 (11720944_at) / Fold change /veh RGS16 (11720944_at) / RFU, VPS4B / Fold change vs veh, VPS4B / RFU, CREB1 / Fold change vs veh, CREB1 / RFU, DNAJC13 / Fold change vs veh, DNAJC13 / RFU, GNAQ / Fold change vs veh, GNAQ / RFU, CDK5R1 / Fold change vs veh, CDK5R1 / RFU, ZRANB3 / Fold change vs veh, ZRANB3 / RFU, CUL4A / Fold change vs veh, CUL4A / RFU, CCNY / Fold change vs veh, CCNY / RFU, UFL1 / Fold change vs veh, UFL1 / RFU, COG3 / Fold change vs veh, COG3 / RFU, DIAPH2 / Fold change vs veh, DIAPH2 / RFU, SKA2 / Fold change vs veh, SKA2 / RFU, AFF3 / Fold change vs veh, AFF3 / RFU, LMF1 / Fold change vs veh, LMF1 / RFU, IPO11 / Fold change vs veh, IPO11 / RFU, DFFB / Fold change vs veh, DFFB / RFU, FOXP1 / Fold change vs veh, FOXP1 / RFU, CARD8 / Fold change vs veh, CARD8 / RFU, STRN3 / Fold change vs veh, STRN3 / RFU, ADK / Fold change vs veh, ADK / RFU, RASSF2 / Fold change vs veh, RASSF2 / RFU, WIPF1 / Fold change vs veh, WIPF1 / RFU, LARP1B / Fold change vs veh, LARP1B / RFU, RASA1 / Fold change vs veh, RASA1 / RFU, RB1 / Fold change vs veh, RB1 / RFU, PPFIA1 / Fold change vs veh, PPFIA1 / RFU, MAT2A / Fold change vs veh, MAT2A / RFU, CCT5 / Fold change vs veh, CCT5 / RFU, WDR92 / Fold change vs veh, WDR92 / RFU, CUX1 / Fold change vs veh, CUX1 / RFU, TTC7A / Fold change vs veh, TTC7A / RFU, TMEM135 / Fold change vs veh, TMEM135 / RFU, DEPTOR / Fold change vs veh, DEPTOR / RFU, CPM / Fold change vs veh, CPM / RFU, DNAJB6 / Fold change vs veh, DNAJB6 / RFU, CACNA2D3 / Fold change vs veh, CACNA2D3 / RFU, DTX4 / Fold change vs veh, DTX4 / RFU, TFCP2 / Fold change vs veh, TFCP2 / RFU, GMCL1 /// GMCL1P1 / Fold change vs veh, GMCL1 /// GMCL1P1 / RFU, AEBP2 / Fold change vs veh, AEBP2 / RFU, SNHG1 /// SNORD22 /// SNORD25 /// SNORD26 /// SNORD27 /// SNORD28 /// SNORD29 /// SNORD31 / Fold change vs veh, SNHG1 /// SNORD22 /// SNORD25 /// SNORD26 /// SNORD27 /// SNORD28 /// SNORD29 /// SNORD31 / Fold change (Aza/veh), C12orf56 (ProbeSet 11735607_a_at) / Fold change (ACY-1035/veh), C12orf56 (ProbeSet 11735607_a_at) / Fold change (Aza/veh), FGFR1OP (ProbeSet 11751329_s_at) / Fold change (ACY-1035/veh), FGFR1OP (ProbeSet 11751329_s_at) / Fold change (Aza/veh), VPS36 (ProbeSet 11739960_a_at) / Fold change (ACY-1035/veh), VPS36 (ProbeSet 11739960_a_at) / RFU SYPL1 (11715823_x_at) / Fold change /veh SYPL1 (11715823_x_at) / RFU IGFBP7 (11715501_s_at) / Fold change /veh IGFBP7 (11715501_s_at) / RFU REEP3 (11722064_at) / Fold change /veh REEP3 (11722064_at) / RFU IGLL1 (11728026_x_at) / Fold change /veh IGLL1 (11728026_x_at): dose or concentration left out as unconfirmed
Settings: MV-4-11 cells, 48 hours

Structure (SMILES): Nc1ncn([C@@H]2O[C@H](CO)[C@@H](O)[C@H]2O)c(=O)n1 [azacitidine]
- Fold change /veh FAM167A (11723789_a_at): 1.19
